In patent US20230103300A1, “TOPICAL PHARMACEUTICAL COMPOSITION IN GEL FORM COMPRISING AT LEAST AMI[…] USE IN THE TREATMENT OF CORONAVIRUS-INDUCED NEUROPATHIC PAIN” (AlgoTherapeutix, priority 2021, published 2023):

Experiment: Comparative ex vivo study of the percutaneous absorption of amitriptyline (Frantz cell)
Type: in vitro ADME
Settings: ex vivo human skin, topical application
Procedure: Comparative ex vivo study of the percutaneous absorption of amitriptyline in a formulation A in aqueous gel form (invention) and in a formulation B in cream form (comparative).
Each of compositions A and B was applied on separate human skin samples. For each composition, the experiment was repeated 3 times with 3 skin samples from 3 different donors, i.e., 9 samples.
The skin samples are mounted in a Frantz cell and are heated to a surface temperature of 32° C.±1° C.
Composition A or B is spread evenly using a spatula on each skin sample at a rate of 10 mg per cell, corresponding to 5 mg/cm^2 of skin.
The skin samples are rinsed 16 hours after application.
Each skin sample was placed with a tweezers on a paper towel (dermis facing downward).
The stratum corneum is removed using adhesive strips.
After removing the stratum corneum, the sample is perforated. The epidermis is then separated from the dermis. Each of them is placed in separate bottles.
The different samples were then extracted.

## CN(C)CCC=C1c2ccccc2CCc2ccccc21 [amitriptyline, Amitriptyline]
  systemic passage of amitriptyline: less than 0.1 % of the administered dose
